# Earlier results in patent US20080255097A1, “Methods for the Treatment of Substance Abuse and Dependence” (priority 2005, published 2008).
# How the values were obtained:
# [1] = not given; remark: listed apart in the source
# [2] = overdose
# GABAA receptors = conditions: 10 μM diazepam substituted for ethanol
# [3] = system: GABAA receptor α4 subunit mRNA; conditions: withdrawal after long-term exposure
# [4] = system: GABAA receptor α4 subunit mRNA; conditions: exposure at the time of ethanol withdrawal
# allopregnanolone [5] = conditions: in vivo
# allopregnanolone [6] = conditions: in vivo; remark: listed apart in the source
smiles,measurement,setting,value
N[C@@H]1C[C@H]1c1ccccc1 (racemic) [TRANYLCYPROMINE],time in which the drug is excreted,after withdrawal,24 h
"C[C@]12C=CC(=O)N[C@@H]1CC[C@@H]1[C@@H]2CC[C@]2(C)[C@@H](C(=O)Nc3cc(C(F)(F)F)ccc3C(F)(F)F)CC[C@@H]12 [Dutasteride, (5α,17β)-N-{2,5 bis(trifluoromethyl)phenyl}-3-oxo-4-azaandrost-1-ene-17-carboxamide]",adverse effects compared with therapeutic dose of 0.5 mg,"[1]; clinical study, daily doses of 5 mg, 60 subjects, 6 months",subjects for 6 months with no additional adverse effects to those
same,safety,"[1]; volunteer studies, single doses up to 40 mg (80 times the therapeutic dose) for 7 days","without significant safety concerns. In a clinical study, daily doses"
NCC1(CC(=O)O)CCCCC1 [Gabapentin],half-life,in vivo,5 to 7 h
same,metabolism,in vivo,not appreciably metabolized
CCCC(C)(COC(N)=O)COC(N)=O [MEPROBROMATE],highest ingested amount with survival,[2],much as 40 g.
"C=CCN1CC[C@]23c4c5ccc(O)c4O[C@H]2C(=O)CC[C@@]3(O)[C@H]1C5 [Naloxone, 17-allyl-4,5α-epoxy-3,14-dihydroxymorphinan-6-one]",half-life,in vivo,1 to 1.67 h
CN1C(=O)CN=C(c2ccccc2)c2cc(Cl)ccc21 [diazepam],effect on positive modulation of 3 μM flumazenil induced by ethanol withdrawal,GABAA receptors,negated
same,amount of α4 subunit mRNA on withdrawal of the drug,[3],marked increase
same,effect on ethanol withdrawal-induced increase in abundance of α4 subunit mRNA,[4],antagonizes
CNCCC(Oc1ccc(C(F)(F)F)cc1)c1ccccc1 (stereo not drawn) [fluoxetine],brain and cerebrospinal fluid content of allopregnanolone,allopregnanolone [5],increase
CN1CCC[C@H]1c1cccnc1 [nicotine],cerebrocortical concentrations of allopregnanolone and its precursors,allopregnanolone [6],increase
same,half-life,in vivo,about 60 minutes
CCN(C(C)=O)c1cccc(-c2ccnc3c(C#N)cnn23)c1 [zalpelon],amount of α4 subunit mRNA on withdrawal of the drug,[3],marked increase
Cc1ccc(-c2nc3ccc(C)cn3c2CC(=O)N(C)C)cc1 [zolpidem],amount of α4 subunit mRNA on withdrawal of the drug,[3],marked increase
